Data as given in patent US12310940B2, “Cell-permeable succinate compounds” (ABLIVA AB, priority 2014, dated 2025).

Legend:
intact PBMCs = assay: Lactate release of intact PBMCs exposed to metformin; assay type: cell-based, human; settings: 10 mM metformin, data not shown
[1] = test system: permeabilized human PBMCs; assay: cells; settings: PBMC, read-out: IC50 for inhibition of OXPHOSCI
Procedure: Real-time respirometric measurements were performed using high-resolution oxygraphs (Oxygraph-2k, Oroboros Instruments, Innsbruck, Austria). The experimental conditions during the measurements were the following: 37° C., 2 mL active chamber volume and 750 rpm stirrer speed. […] For data recording, DatLab software version 4 and 5 were used (Oroboros Instruments, Innsbruck, Austria). Settings, daily calibration and instrumental background corrections were conducted according to the manufacturer's instructions. […] Standard non-linear curve fitting was applied to calculate half maximal inhibitory concentration (IC50) values. […] Maximal uncoupled respiratory electron transport system capacity supported by convergent input through complex I and […] ) was evaluated by subsequent titration with the protonophore carbonyl-cyanide p-(trifluoromethoxy) phenylhydrazone (FCCP). […] The complex III inhibitor antimycin (1 μg mL^-1) was then given to reveal residual oxygen consumption (ROX). […] Complex IV activity was calculated by subtracting the sodium azide value from the TMPD value. With exception of complex IV activity, all respiratory states were measured at steady-state and corrected for ROX. Complex IV activity was measured after ROX determination and not at steady-state.

[2] = Al-Abri et al., 2013; cited from earlier work

Procedure for intact human platelets: Real-time respirometric measurements were performed using high-resolution oxygraphs (Oxygraph-2k, Oroboros Instruments, Innsbruck, Austria). The experimental conditions during the measurements were the following: 37° C., 2 mL active chamber volume and 750 rpm stirrer speed. […] For data recording, DatLab software version 4 and 5 were used (Oroboros Instruments, Innsbruck, Austria). Settings, daily calibration and instrumental background corrections were conducted according to the manufacturer's instructions. […] All measurements were performed at a platelet concentration of 200×10^6 cells per mL or a PBMC concentration of 5×10^6 cells per mL.
Venous blood from 18 healthy adults (11 males and 7 females) was drawn in K2EDTA tubes (BD Vacutainer® Brand Tube with dipotassium EDTA, BD, Plymouth, UK) according to clinical standard procedure after written informed consent was acquired. For platelet isolation the whole blood was centrifuged (Multifuge 1 S—R Heraeus, Thermo Fisher Scientifics, Waltham, USA) at 500 g at room temperature (RT) for 10 min. Platelet-rich plasma was collected to 15 mL falcon tubes and centrifuged at 4600 g at RT for 8 min. The resulting pellet was resuspended in 1-2 mL of the donor's own plasma. […] The blood remaining after isolation of platelets was washed with an equal volume of physiological saline and layered over 3 mL of Lymphoprep™. After centrifugation at 800 g at RT (room temperature) for 30 min the PBMC layer was collected and washed with physiological saline. Following a centrifugation at 250 g at RT for 10 min the pellet of PBMCs was resuspended in two parts of physiological saline and one part of the donor's own plasma. Cell count for both PBMCs and platelets were performed using an automated hemocytometer (Swelab Alfa, Boule Medical AB, Stockholm, Sweden).
Routine respiration was followed for 60 min at 37° C. before the ATP-synthase inhibitor oligomycin (1 μg mL^−1) was added to assess LEAK respiration. Maximal uncoupled respiratory electron transport system capacity supported by endogenous substrates (ETS) was reached by titration of FCCP.

CN(C)C(=N)N=C(N)N [metformin]
lactate release of intact PBMCs (intact PBMCs): increased lactate release
IC50 [1]: 450 µM
LEAK respiration in intact cells (intact human platelets; data not shown): not significantly changed
toxic concentration seen in the present study (intact human platelets; human blood cells): 1 mM
reversibility of complex I inhibition upon removal of the drug (intact human platelets; washing and permeabilizing the cells): did not seem to be reversible
serum level in a case report of involuntary intoxication, prior to hemodialysis [2]: over 2 mM
